Laboratory results taken from ChEMBL document CHEMBL4673391, “Multiresidue Tetrapeptide Substitutions Yield a 140-fold Selective Melanocortin-3 over Melanocortin-4 Receptor Agonist” (ACS Med Chem Lett, 2021).

Key:
Melanocortin receptor 4 [1] = molecular target: T1, Melanocortin receptor 4 (Mus musculus, UniProt P56450); test: Antagonist activity at mouse melanocortin receptor 4 expressed in HEK293 cells assessed as inhibition of NDP-MSH-induced cAMP accumulation incubated for 2 hrs by cAMP Alpha-screen assay based Schild analysis; format: functional, cell-based; conditions: for Kb: read-out: pA2 (converted)
T1 sequence (P56450 whole entry): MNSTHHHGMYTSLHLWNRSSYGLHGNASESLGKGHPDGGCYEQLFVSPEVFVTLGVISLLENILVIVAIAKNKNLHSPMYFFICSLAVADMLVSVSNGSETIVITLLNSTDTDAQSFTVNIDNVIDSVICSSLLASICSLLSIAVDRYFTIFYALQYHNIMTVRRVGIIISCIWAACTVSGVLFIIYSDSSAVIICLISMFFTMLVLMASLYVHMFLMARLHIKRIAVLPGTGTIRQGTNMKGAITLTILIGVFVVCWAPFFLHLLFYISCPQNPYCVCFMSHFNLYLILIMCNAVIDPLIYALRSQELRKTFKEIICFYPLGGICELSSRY

[2] = molecular target: Melanocyte-stimulating hormone receptor (Mus musculus, UniProt Q01727); test: Agonist activity at mouse melanocortin receptor 1 expressed in HEK293 cells assessed as stimulation of cAMP accumulation incubated for 2 hrs by cAMP Alpha-screen assay; format: functional, cell-based
Sequence of Melanocyte-stimulating hormone receptor (Q01727 whole entry): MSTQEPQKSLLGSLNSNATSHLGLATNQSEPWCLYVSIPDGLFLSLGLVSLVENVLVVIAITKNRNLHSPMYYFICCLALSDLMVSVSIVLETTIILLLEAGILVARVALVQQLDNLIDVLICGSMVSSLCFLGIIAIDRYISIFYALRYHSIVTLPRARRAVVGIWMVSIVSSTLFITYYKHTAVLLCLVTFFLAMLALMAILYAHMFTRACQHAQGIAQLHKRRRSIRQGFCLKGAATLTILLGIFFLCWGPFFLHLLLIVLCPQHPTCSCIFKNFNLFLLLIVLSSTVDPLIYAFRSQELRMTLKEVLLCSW

[3] = molecular target: Melanocortin receptor 4 (Mus musculus) (UniProt P56450); test: Agonist activity at mouse melanocortin receptor 4 expressed in HEK293 cells assessed as stimulation of cAMP accumulation at 100 uM incubated for 2 hrs by cAMP Alpha-screen assay relative to control; format: functional, cell-based
Sequence of Melanocortin receptor 4 (Mus musculus) (P56450 whole entry): as the sequence (P56450 whole entry) above

Mus musculus [4] = species on record: Mus musculus; test: Selectivity index, ratio of Ki for mouse melanocortin receptor 4 expressed in HEK293 cells to EC50 for mouse melanocortin receptor 3 expressed in HEK293 cells assessed as stimulation of cAMP accumulation incubated for 2 hrs by cAMP Alpha-screen assay; format: cell-based
Melanocortin receptor 3 = Melanocortin receptor 3 (Mus musculus, UniProt P33033); test: Agonist activity at mouse melanocortin receptor 3 expressed in HEK293 cells assessed as stimulation of cAMP accumulation incubated for 2 hrs by cAMP Alpha-screen assay; format: functional, cell-based
Sequence of Melanocortin receptor 3 (P33033 whole entry): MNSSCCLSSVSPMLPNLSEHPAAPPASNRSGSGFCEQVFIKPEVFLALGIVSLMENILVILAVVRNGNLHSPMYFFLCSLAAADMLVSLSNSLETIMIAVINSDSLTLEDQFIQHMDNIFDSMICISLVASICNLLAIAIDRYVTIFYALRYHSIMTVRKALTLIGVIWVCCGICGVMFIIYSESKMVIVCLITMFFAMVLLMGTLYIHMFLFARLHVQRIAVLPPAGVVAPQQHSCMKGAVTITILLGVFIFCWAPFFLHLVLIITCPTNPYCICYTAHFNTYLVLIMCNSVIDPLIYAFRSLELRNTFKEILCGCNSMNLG

Melanocortin receptor 5 = Melanocortin receptor 5 (Mus musculus, UniProt P41149); test: Agonist activity at mouse melanocortin receptor 5 expressed in HEK293 cells assessed as stimulation of cAMP accumulation incubated for 2 hrs by cAMP Alpha-screen assay; format: functional, cell-based
Sequence of Melanocortin receptor 5 (P41149 whole entry): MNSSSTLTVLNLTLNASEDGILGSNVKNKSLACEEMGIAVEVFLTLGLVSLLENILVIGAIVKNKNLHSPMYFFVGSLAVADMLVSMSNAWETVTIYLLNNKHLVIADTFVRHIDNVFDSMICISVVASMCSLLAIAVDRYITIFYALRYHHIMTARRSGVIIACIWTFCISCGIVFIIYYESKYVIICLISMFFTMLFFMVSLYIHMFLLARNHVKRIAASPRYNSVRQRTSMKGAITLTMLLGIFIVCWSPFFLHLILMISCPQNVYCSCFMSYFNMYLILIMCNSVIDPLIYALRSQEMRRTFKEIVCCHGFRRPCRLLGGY

Melanocortin receptor 4 [5] = molecular target: T1, Melanocortin receptor 4; test: Agonist activity at mouse melanocortin receptor 4 expressed in HEK293 cells assessed as stimulation of cAMP accumulation incubated for 2 hrs by cAMP Alpha-screen assay; format: functional, cell-based
Mus musculus [6] = species on record: Mus musculus; test: Selectivity index, ratio of EC50 for mouse melanocortin receptor 4 expressed in HEK293 cells to EC50 for mouse melanocortin receptor 3 expressed in HEK293 cells assessed as stimulation of cAMP accumulation incubated for 2 hrs by cAMP Alpha-screen assay; format: cell-based
[7] = molecular target: Melanocyte-stimulating hormone receptor (Mus musculus) (UniProt Q01727); test: Partial agonist activity at mouse melanocortin receptor 1 expressed in HEK293 cells assessed as stimulation of cAMP accumulation incubated for 2 hrs by cAMP Alpha-screen assay relative to NDP-MSH; format: functional, cell-based; conditions: filed as partial agonist
Sequence of Melanocyte-stimulating hormone receptor (Mus musculus) (Q01727 whole entry, looked up): as the sequence (Q01727 whole entry) above

Ki (Melanocortin receptor 4 [1]) | Kb (Melanocortin receptor 4 [1]) | EC50 [2] | Activity [3] | EC50 (Melanocortin receptor 3) | EC50 (Melanocortin receptor 5) | Activity ([3]; filed as agonist) | EC50 (Melanocortin receptor 4 [5]) | Activity [7] | SMILES | Selectivity ratio (Mus musculus [4]) | Ratio EC50 (Mus musculus [6])
– | – | 11 nM | – | 14 nM | 5.6 nM | – | 400 nM | – | CC(=O)N[C@@H](CCCNC(=N)N)C(=O)N[C@@H](CCC(N)=O)C(=O)N[C@H](Cc1ccc(-c2ccccc2)cc1)C(=O)N1Cc2ccccc2C[C@@H]1C(N)=O | – | 28
125 nM | 126 nM | 0.23 nM | 35% | 11 nM | 3.5 nM | – | – | – | CC(=O)N[C@@H](CCCNC(=N)N)C(=O)N[C@@H](CCCNC(=N)N)C(=O)N[C@H](Cc1ccc(-c2ccccc2)cc1)C(=O)N1Cc2ccccc2C[C@H]1C(N)=O | 11 | –
2000 nM | 2000 nM | 60 nM | – | 66 nM | 16.4 nM | 40% | – | – | CC(=O)N[C@@H](CCCNC(=N)N)C(=O)N[C@@H](CCC(N)=O)C(=O)N[C@H](Cc1ccc(-c2ccccc2)cc1)C(=O)N1Cc2ccccc2C[C@H]1C(N)=O | 30 | –
160 nM | 158 nM | 0.6 nM | – | 14 nM | 5.7 nM | 40% | – | – | CC(=O)N[C@@H](CCCNC(=N)N)C(=O)N[C@@H](CCCNC(=N)N)C(=O)N[C@H](Cc1ccc(-c2ccccc2)cc1)C(=O)N1Cc2ccccc2C[C@@H]1C(N)=O | 11 | –

Further lines, the compound ahead of its results:

SMILES | Ki (Melanocortin receptor 4 [1]) | Kb (Melanocortin receptor 4 [1]) | EC50 [2] | Activity [3] | EC50 (Melanocortin receptor 3) | EC50 (Melanocortin receptor 5) | Activity ([3]; filed as agonist) | EC50 (Melanocortin receptor 4 [5]) | Activity [7] | Selectivity ratio (Mus musculus [4]) | Ratio EC50 (Mus musculus [6])
CC(=O)N[C@@H](Cc1c[nH]cn1)C(=O)N[C@@H](CCCNC(=N)N)C(=O)N[C@H](Cc1ccc(-c2ccccc2)cc1)C(=O)N1Cc2ccccc2C[C@@H]1C(N)=O | 320 nM | 316 nM | 0.9 nM | 35% | 39 nM | 26 nM | – | – | – | 8 | –
CC(=O)N[C@@H](Cc1c[nH]cn1)C(=O)N[C@@H](CCC(N)=O)C(=O)N[C@H](Cc1ccc(-c2ccccc2)cc1)C(=O)N1Cc2ccccc2C[C@@H]1C(N)=O | 3980 nM | 3980 nM | 123 nM | – | 110 nM | 39 nM | 50% | – | – | 36 | –
CC(=O)N[C@@H](Cc1c[nH]cn1)C(=O)N[C@@H](CCC(N)=O)C(=O)N[C@H](Cc1ccc(-c2ccccc2)cc1)C(=O)N1Cc2ccccc2C[C@H]1C(N)=O | 10000 nM | 10000 nM | 160 nM | 20% | 150 nM | 31 nM | – | – | – | 65 | –
CC(=O)N[C@H](C(=O)N[C@@H](CCCNC(=N)N)C(=O)N[C@H](Cc1ccc(-c2ccccc2)cc1)C(=O)N1Cc2ccccc2C[C@@H]1C(N)=O)C(C)C | 250 nM | 251 nM | 1.7 nM | 35% | 36 nM | 25 nM | – | – | – | 7 | –
CC(=O)N[C@H](C(=O)N[C@@H](CCCNC(=N)N)C(=O)N[C@H](Cc1ccc(-c2ccccc2)cc1)C(=O)N1Cc2ccccc2C[C@H]1C(N)=O)C(C)C | 400 nM | 398 nM | 1.1 nM | 10% | 40 nM | 18 nM | – | – | – | 10 | –
CC(=O)N[C@@H](Cc1c[nH]cn1)C(=O)N[C@@H](CCCNC(=N)N)C(=O)N[C@H](Cc1ccc(-c2ccccc2)cc1)C(=O)N1Cc2ccccc2C[C@H]1C(N)=O | 320 nM | 316 nM | 0.5 nM | 35% | 22 nM | 9 nM | – | – | – | 14 | –
CC(=O)N[C@H](C(=O)N[C@@H](CCC(N)=O)C(=O)N[C@H](Cc1ccc(-c2ccccc2)cc1)C(=O)N1Cc2ccccc2C[C@@H]1C(N)=O)C(C)C | > 10000 nM | > 10000 nM | 150 nM | – | 70 nM | 36 nM | 40% | – | 75% | > 140 | –
CC(=O)N[C@H](C(=O)N[C@@H](CCC(N)=O)C(=O)N[C@H](Cc1ccc(-c2ccccc2)cc1)C(=O)N1Cc2ccccc2C[C@H]1C(N)=O)C(C)C | > 10000 nM | > 10000 nM | 80 nM | 20% | 110 nM | 31 nM | – | – | 85% | > 90 | –
